“And” between values parts separate entries of the source, which are not always exact repeats. Equal values may be shown once.
Experiments:
[1] = Effect of aqueous dilution on DMA solubility and physical stability; format: physicochemical
Text: Table 2 gives the effect of aqueous dilution on DMA solubility

[2] = Clinical testing of 80:20 DMA:0.9% saline formulation; format: in vivo
Solubility in water = format: physicochemical; conditions: regardless of salt content or pH
[3] = Preferred formulation system: stability; format: physicochemical
Protocol: The final administration formulation is then prepared by diluting this second formulation to the desired concentration with saline.

[4] = Solubility in a range of solvents on dilution; format: physicochemical
Protocol: The protocol adopted was as follows:
A small volume, 1-2 mL, of each solvent system was prepared and a weight of the compound in question was added. The solutions were stirred for approximately 4 hours and then […] membrane filtered. The concentration of the compound in question in the filtrate was then determined by HPLC assay.

[5] = DMA 45.8 mg/mL, 1:3 with 0.9% saline containing […] Tween 80
[6] = DMA 45.8 mg/mL, 1:4.5 with 0.9% saline containing […] Tween 80
[7] = DMA 55.0 mg/mL, 1:3 with 0.9% saline containing […] Tween 80
[8] = DMA 73.3 mg/mL, 1:3 with 0.9% saline containing […] Tween 80
[9] = DMA […] mg/mL, Solvent:Saline (0.9%) 1:3
[10] = PEG 400 87.7 mg/mL, 1:1 glucose
[11] = PEG 400 87.7 mg/mL, 1:2 glucose
[12] = PEG 400, 45.6 mg/mL, 1:1.5 with 0.9% saline containing […] Tween 80
[13] = PEG 400, 45.6 mg/mL, 1:2 with 0.9% saline containing […] Tween 80
[14] = PEG 400, 45.6 mg/mL, 1:2.5 with 0.9% saline containing […] Tween 80
[15] = PEG 400, 91.2 mg/mL, 1:2 with 0.9% saline containing […] Tween 80
[16] = PEG 400, 91.2 mg/mL, Solvent:Saline (0.9%) 1:1
[17] = PEG 400, 91.2 mg/mL, Solvent:Saline (0.9%) 1:2

C[C@H](NP(=O)(OC[C@H]1O[C@@H](n2ccc(N)nc2=O)C(F)(F)C1O)Oc1ccccc1)C(=O)OCc1ccccc1 (stereo partly drawn) [NUC-1031, 2′-Deoxy-2′,2′-difluoro-D-cytidine-5′-O-[phenyl (benzoxy-L-alaninyl)]phosphate]
Assay ([1]; 50:50 DMA:0.9% Saline): 66 mg/mL | Precipitation > 24 hours ([1]; 50:50 DMA:0.9% Saline): Yes | Assay ([1]; 60:40 DMA:0.9% Saline): 293 mg/mL | Precipitation > 24 hours ([1]; 60:40 DMA:0.9% Saline): Yes | Assay ([1]; 70:30 DMA:0.9% Saline): 339 mg/mL | Precipitation > 24 hours ([1]; 70:30 DMA:0.9% Saline): Yes | Precipitation (2 weeks) ([1]; 80:20 DMA in 0.9% Saline, assay 270 mg/ml): Yes | Precipitation (2 weeks) ([1]; 80:20 DMA in 0.9% Saline, assay 272 mg/ml): No | Precipitation (2 weeks) ([1]; 80:20 DMA in 0.9% Saline, assay 315 mg/ml): Yes | Assay ([1]; 80:20 DMA:0.9% Saline): 386 mg/mL | Precipitation > 24 hours ([1]; 80:20 DMA:0.9% Saline): Yes | Precipitation (2 weeks) ([1]; 85:15 DMA in 0.9% Saline, assay 338 mg/ml): No | Assay ([1]; 90:10 DMA:0.9% Saline): 483 mg/mL | Precipitation > 24 hours ([1]; 90:10 DMA:0.9% Saline): No | Assay ([1]; 95:5 DMA:0.9% Saline): 518 mg/mL | Precipitation > 24 hours ([1]; 95:5 DMA:0.9% Saline): No | Assay ([1]; 100% DMA): 592 mg/mL | Precipitation > 24 hours ([1]; 100% DMA): No | Assay ([1]; Table 2a, 80:20 DMA solution in 0.9% Saline): 304 mg/mL and 272 mg/mL and 315 mg/mL and 270 mg/mL | Assay ([1]; Table 2a, 85:15 DMA solution in 0.9% Saline): 338 mg/mL | treatment outcome in the clinical study ([2]; 250 mg NUC-1031 in 80:20 DMA:0.9% saline solution, 5 ml vial): successful treatment | tolerability of injection ([2]; 250 mg NUC-1031 in 80:20 DMA:0.9% saline, needed to be administered by a central line): pain on injection | solubility in water (Solubility in water): essentially insoluble in water | stability for storage and transport ([3]; 250 mg/mL in 80:20 (by volume) DMA:0.9% saline): sufficiently stable for long term storage and transport | osmolarity ([3]; 4, 8 and 10 mg/mL in 0.45% and 0.9% saline): acceptable for peripheral administration | time stable to precipitation and to degradation after dilution ([3]; 4, 8 and 10 mg/mL, 0.45% and 0.9% saline, pH 4.5, 6.0 and 7.0, not stirred): 48 h | Appearance [4, 5]: Clear | NUC-1031 mg/mL HPLC assay filtrate [4, 5]: 11.5 mg/mL | Appearance ([4]; DMA 45.8 mg/mL, 1:3.5 with 0.9% saline containing […] Tween 80): Clear | NUC-1031 mg/mL HPLC assay filtrate ([4]; DMA 45.8 mg/mL, 1:4 with 0.9% saline containing […] Tween 80): 8.4 mg/mL | Appearance ([4]; DMA 45.8 mg/mL, 1:4 with 0.9% saline containing […] Tween 80 (precipitates >30 min, stirring precipitate dissolves)): Initially clear | Appearance [4, 6]: Slightly turbid | NUC-1031 mg/mL HPLC assay filtrate [4, 6]: 7.2 mg/mL | Appearance [4, 7]: Slightly turbid | NUC-1031 mg/mL HPLC assay filtrate [4, 7]: 13.9 mg/mL | Appearance [4, 8]: Precipitation | NUC-1031 mg/mL HPLC assay filtrate [4, 8]: 14.7 mg/mL | Appearance ([4]; DMA 92.5 mg/mL, 1:1 glucose): Clear | Evidence of further precipitation on storage of filtrate at RT >24 h ([4]; DMA 92.5 mg/mL, 1:1 glucose): No | NUC-1031 mg/mL HPLC assay filtrate ([4]; DMA 92.5 mg/mL, 1:1 glucose): 47.3 mg/mL | Appearance ([4]; DMA 92.5 mg/mL, 1:2 glucose): Slightly turbid | Evidence of further precipitation on storage of filtrate at RT >24 h ([4]; DMA 92.5 mg/mL, 1:2 glucose): Yes | NUC-1031 mg/mL HPLC assay filtrate ([4]; DMA 92.5 mg/mL, 1:2 glucose): 29.7 mg/mL | Appearance [4, 9]: Precipitation | NUC-1031 mg/mL HPLC assay filtrate [4, 9]: 14.8 mg/mL | NUC-1031 mg/mL HPLC assay filtrate ([4]; DMA […], 1:2 with 0.9% saline containing […] Tween 80): 30.9 mg/mL | NUC-1031 mg/mL HPLC assay filtrate ([4]; DMA […], 1:3 with 0.9% saline containing […] Tween 80): 15.2 mg/mL | NUC-1031 mg/mL HPLC assay filtrate ([4]; DMA […], Solvent:Saline (0.9%) 1:1): 47.0 mg/mL | NUC-1031 mg/mL HPLC assay filtrate ([4]; DMA […], Solvent:Saline (0.9%) 1:2): 30.2 mg/mL | Appearance ([4]; NMP 115.0 mg/mL, 1:1 glucose): Slightly turbid | Evidence of further precipitation on storage of filtrate at RT >24 h ([4]; NMP 115.0 mg/mL, 1:1 glucose): No | NUC-1031 mg/mL HPLC assay filtrate ([4]; NMP 115.0 mg/mL, 1:1 glucose): 58.5 mg/mL | Appearance ([4]; NMP 115.0 mg/mL, 1:1 saline): Slightly turbid | Evidence of further precipitation on storage of filtrate at RT >24 h ([4]; NMP 115.0 mg/mL, 1:1 saline): No | NUC-1031 mg/mL HPLC assay filtrate ([4]; NMP 115.0 mg/mL, 1:1 saline): 60.0 mg/mL | Appearance ([4]; NMP 115.0 mg/mL, 1:2 glucose): Slightly turbid | Evidence of further precipitation on storage of filtrate at RT >24 h ([4]; NMP 115.0 mg/mL, 1:2 glucose): Yes | NUC-1031 mg/mL HPLC assay filtrate ([4]; NMP 115.0 mg/mL, 1:2 glucose): 39.6 mg/mL | Appearance ([4]; NMP 115.0 mg/mL, 1:2 saline): Slightly turbid | Evidence of further precipitation on storage of filtrate at RT >24 h ([4]; NMP 115.0 mg/mL, 1:2 saline): Yes | NUC-1031 mg/mL HPLC assay filtrate ([4]; NMP 115.0 mg/mL, 1:2 saline): 40.5 mg/mL | evidence of precipitation after dilution ([4]; NMP and DMA solutions, dilution 1:1 with water or saline): did not show any evidence of precipitation | Appearance [4, 10]: Slightly turbid | Evidence of further precipitation on storage of filtrate at RT >24 h [4, 10]: Yes | NUC-1031 mg/mL HPLC assay filtrate [4, 10]: 46.1 mg/mL | Appearance [4, 11]: Turbid | Evidence of further precipitation on storage of filtrate at RT >24 h [4, 11]: No | NUC-1031 mg/mL HPLC assay filtrate [4, 11]: 17.4 mg/mL | Appearance [4, 12]: Clear | Evidence of further precipitation on storage of filtrate at RT >24 h [4, 12]: Yes | Appearance [4, 13]: Clear | Evidence of further precipitation on storage of filtrate at RT >24 h [4, 13]: Yes | Appearance [4, 14]: Precipitation, | Evidence of further precipitation on storage of filtrate at RT >24 h [4, 14]: Yes | NUC-1031 mg/mL HPLC assay filtrate [4, 14]: 10.5 mg/mL | Appearance [4, 15]: Slightly turbid | Evidence of further precipitation on storage of filtrate at RT >24 h [4, 15]: Yes | NUC-1031 mg/mL HPLC assay filtrate [4, 15]: 18.8 mg/mL | Appearance [4, 16]: Clear | Evidence of further precipitation on storage of filtrate at RT >24 h [4, 16]: Yes | Appearance [4, 17]: Precipitation | Evidence of further precipitation on storage of filtrate at RT >24 h [4, 17]: Yes | NUC-1031 mg/mL HPLC assay filtrate [4, 17]: 16.2 mg/mL

— patent US11707477B2, “Formulation comprising a gemcitabine-prodrug” (NuCana plc, priority 2014, dated 2023)
